The values that follow come from patent US8865887B2, “Method for synthesizing calixarene and/or cyclodextrin copolymers, terpolymers and tetrapolymers, and uses thereof” (priority 2009, dated 2014).

The procedure of data set [1]: NIM is used to treat extra-articular and articular inflammatory forms. […] Phase solubility study was carried out according to the method described by Higuchi to study the influence of the complexation of different cyclodextrins on the solubility of NIM. Native cyclodextrins, modified cyclodextrins, cyclodextrin copolymers and cyclodextrin tetrapolymers were used. The cyclodextrin tetrapolymer, based on 35% of alpha-cyclodextrin, 35% beta-cyclodextrin and 30% gamma-cyclodextrin, is synthesized by direct melt polycondensation according to the example 1 and the ratio cyclodextrin/citric acid is 1/3.
Phase Solubility Method: Higuchi's Method
Suspensions were shaken at a temperature of 37° C. on a rotary flask shaker for 7 days and supernatants were filtered through polycarbonate membrane (0.45 μm pore size).

For data set [2] the following is noted: native cyclodextrins; cited from earlier work.

Values after ≈ are worked out from the molar mass of the structure shown. Like-named read-outs stand apart in the source and are kept apart here.

For the compound `OC[C@H]1O[C@@H]2O[C@H]3[C@H](O)[C@@H](O)[C@@H](O[C@H]4[C@H](O)[C@@H](O)[C@@H](O[C@H]5[C@H](O)[C@@H](O)[C@@H](O[C@H]6[C@H](O)[C@@H](O)[C@@H](O[C@H]7[C@H](O)[C@@H](O)[C@@H](O[C@H]1[C@H](O)[C@H]2O)O[C@@H]7CO)O[C@@H]6CO)O[C@@H]5CO)O[C@@H]4CO)O[C@@H]3CO` [alpha-CD, α-cyclodextrin], in data set [1], the Kc worked out at 0.045 mM⁻¹ and the “[Nimésulid] max.” value came to 0.07708 mg/mL. In data set [2], the solubility in water was 127 mg/mL (≈ 131 mM).
Regarding `OC[C@H]1O[C@@H]2O[C@H]3[C@H](O)[C@@H](O)[C@@H](O[C@H]4[C@H](O)[C@@H](O)[C@@H](O[C@H]5[C@H](O)[C@@H](O)[C@@H](O[C@H]6[C@H](O)[C@@H](O)[C@@H](O[C@H]7[C@H](O)[C@@H](O)[C@@H](O[C@H]8[C@H](O)[C@@H](O)[C@@H](O[C@H]1[C@H](O)[C@H]2O)O[C@@H]8CO)O[C@@H]7CO)O[C@@H]6CO)O[C@@H]5CO)O[C@@H]4CO)O[C@@H]3CO` [beta-CD, β-cyclodextrin], the Kc in data set [1] was 0.473 mM⁻¹. Also, in data set [1] (7 days), the “[Nimésulid] max.” value stood at 0.09249 mg/mL.
Take `OC[C@H]1O[C@@H]2O[C@H]3[C@H](O)[C@@H](O)[C@@H](O[C@H]4[C@H](O)[C@@H](O)[C@@H](O[C@H]5[C@H](O)[C@@H](O)[C@@H](O[C@H]6[C@H](O)[C@@H](O)[C@@H](O[C@H]7[C@H](O)[C@@H](O)[C@@H](O[C@H]8[C@H](O)[C@@H](O)[C@@H](O[C@H]9[C@H](O)[C@@H](O)[C@@H](O[C@H]1[C@H](O)[C@H]2O)O[C@@H]9CO)O[C@@H]8CO)O[C@@H]7CO)O[C@@H]6CO)O[C@@H]5CO)O[C@@H]4CO)O[C@@H]3CO` [gamma-CD, γ-cyclodextrin]: in data set [1], the Kc was 0.0646 mM⁻¹ and the “[Nimésulid] max.” value was 0.1449 mg/mL. Also, in data set [2], the solubility in water is 236 mg/mL (≈ 182 mM).
